# Tests used:
# mouse SLC26A1 = molecular target: T1, mouse SLC26A1 (Mus musculus, UniProt P58735, C691Y); assay: Radiolabelled anion uptake in Xenopus oocytes expressing mouse SLC26A1; assay type: cell-based
# T1 construct: Full-length mouse SLC26A6b and SLC26A 1 cDNAs were cloned into the Xenopus expression vector pGEMHE; expressed in transfected cells; host or cells: Xenopus laevis oocytes injected with in vitro transcribed cRNA (pGEMHE)
# T1 sequence (P58735 1-704 C691Y): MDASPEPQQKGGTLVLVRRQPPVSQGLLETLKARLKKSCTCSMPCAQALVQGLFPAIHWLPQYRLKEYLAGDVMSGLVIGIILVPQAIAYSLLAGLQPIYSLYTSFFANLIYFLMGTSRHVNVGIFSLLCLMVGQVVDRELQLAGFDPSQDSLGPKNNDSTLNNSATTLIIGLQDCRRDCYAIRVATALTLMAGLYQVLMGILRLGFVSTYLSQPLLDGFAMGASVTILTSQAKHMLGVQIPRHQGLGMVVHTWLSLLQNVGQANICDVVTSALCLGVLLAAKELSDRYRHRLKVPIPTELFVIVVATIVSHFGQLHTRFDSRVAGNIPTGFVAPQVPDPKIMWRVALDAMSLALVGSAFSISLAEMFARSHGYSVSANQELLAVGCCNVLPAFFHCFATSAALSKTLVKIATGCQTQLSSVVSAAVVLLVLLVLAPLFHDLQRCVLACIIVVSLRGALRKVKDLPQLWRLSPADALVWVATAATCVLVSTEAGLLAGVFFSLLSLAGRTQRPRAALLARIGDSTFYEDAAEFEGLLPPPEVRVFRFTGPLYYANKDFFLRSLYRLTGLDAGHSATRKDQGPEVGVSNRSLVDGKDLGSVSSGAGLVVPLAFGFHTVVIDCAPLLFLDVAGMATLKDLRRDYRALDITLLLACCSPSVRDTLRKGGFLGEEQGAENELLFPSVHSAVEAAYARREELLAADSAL
# Description: Full-length mouse SLC26A6b and SLC26A 1 cDNAs were cloned into the Xenopus expression vector pGEMHE (Liman et al., 1992). The SLC26A6 and SLC26A1 expression constructs were linearized, and cRNA was transcribed in vitro using T7 RNA polymerase and a […] MMACHINE® transcription kit (Ambion, Inc. of Austin, Tex., United States of America). Defolliculated oocytes were injected with 25 nl to 50 nl of water or with a solution containing cRNA at a concentration of 0.5 μg/μl (12.5 ng to 25 ng per oocyte) using a Nanoliter-2000 injector (WPI Instruments of Sarasota, Fla., United States of America). Oocytes were incubated at 17° C. in 50% Leibovitz's L-15 media supplemented with penicillin/streptomycin (1000 units/ml) and glutamine for 2-3 days for uptake assays.
# For sulphate uptake assays, oocytes were pre-incubated for 20 minutes in chloride-free uptake medium (100 mM NMDG gluconate, 2 mM potassium gluconate, 1 mM calcium gluconate, 1 mM magnesium gluconate, 10 mM HEPES-Tris, pH 6.0 or pH 7.5 as indicated), followed by a 60-minute period for uptake in the same medium supplemented with 1 mM K2^35SO4 (40 μCi/ml). The cells were then washed three times in uptake buffer with 5 mM cold K2SO4 to remove tracer activity in the extracellular fluid. The oocytes were dissolved individually in 10% SDS, and tracer activity was determined by scintillation counting. Uptake of chloride, formate, and oxalate was assayed using the same chloride-free uptake solutions, substituting 8.3 mM ^36Cl, 500 μM [^14C]oxalate, or 50 μM [^14C]formate for labeled sulphate.
# For sulphate exchange and cis-inhibition experiments, the concentration of NMDG-gluconate in the uptake solution was adjusted to maintain isotonic osmolality, which was confirmed experimentally using a FISKE® osmometer (Fiske Associates, Inc. of Bethel, Conn., United States of America).
# human SLC26A3 (DRA) = molecular target: T2, human SLC26A3 (DRA) (Homo sapiens, UniProt P40879); assay: Cis-inhibition of 36Cl uptake in oocytes expressing human SLC26A3 (DRA); assay type: cell-based; details: 10 mM anion (FIG. 19)
# T2 construct: expressed in transfected cells; host or cells: Xenopus laevis oocytes (SLC26A3-injected)
# T2 sequence (P40879 1-764): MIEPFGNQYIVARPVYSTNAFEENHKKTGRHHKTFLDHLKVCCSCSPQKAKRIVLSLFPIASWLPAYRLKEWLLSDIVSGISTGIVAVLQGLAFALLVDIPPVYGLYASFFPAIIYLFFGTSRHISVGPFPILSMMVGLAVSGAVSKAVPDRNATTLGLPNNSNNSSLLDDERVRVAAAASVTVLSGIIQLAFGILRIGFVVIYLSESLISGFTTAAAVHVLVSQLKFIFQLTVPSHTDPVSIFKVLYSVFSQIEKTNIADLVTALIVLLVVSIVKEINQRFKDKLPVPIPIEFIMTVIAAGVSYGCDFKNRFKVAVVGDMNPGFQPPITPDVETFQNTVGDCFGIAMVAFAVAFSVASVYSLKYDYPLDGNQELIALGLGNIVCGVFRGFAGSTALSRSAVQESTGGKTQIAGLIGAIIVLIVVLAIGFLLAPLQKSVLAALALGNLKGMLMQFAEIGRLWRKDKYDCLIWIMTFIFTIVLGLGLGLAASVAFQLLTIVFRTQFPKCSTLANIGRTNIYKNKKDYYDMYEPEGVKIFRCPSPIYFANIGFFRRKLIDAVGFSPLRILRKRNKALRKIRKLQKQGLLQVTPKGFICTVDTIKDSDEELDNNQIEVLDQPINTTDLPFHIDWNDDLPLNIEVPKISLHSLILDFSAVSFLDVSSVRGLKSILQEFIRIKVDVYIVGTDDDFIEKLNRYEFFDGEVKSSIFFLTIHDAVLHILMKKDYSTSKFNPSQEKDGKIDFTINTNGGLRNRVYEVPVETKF
# Description: FIG. 19 depicts cis-inhibition of ^36Cl^− uptake by various anions in oocytes expressing human SLC26A3 (DRA).
# The SLC26A6 exchanger is a likely mediator of intestinal oxalate absorption and thus a potential therapeutic target in calcium-oxalate stone disease. Intestinal expression of the SLC26A3 or DRA protein is also robust, in keeping with the genetic role of SLC26A3 in congenital chloride-losing diarrhea. Hoglund, P. et al., 1996. […] Scott, D. A., et al., 1999; Scott, D.A. & Karniski, L. P., 2000.
smiles,measurement,setting,value
O=C(O)C(=O)O [oxalate],effect of extracellular anion on SO4 2− transport via SLC26A1,"mouse SLC26A1; 25 mM of the anion (FIG. 9A, 6C)",strongly cis-inhibitory
same,oxalate uptake,mouse SLC26A1; SLC26A1-injected oocytes (FIG. 8A),72±2 pmol/oocyte/h
same,oxalate transport inferred from cis-inhibition of Cl transport,human SLC26A3 (DRA),minimal if any
